Measured values as given in patent US20090179638A1, “ASSAY FOR IDENTIFYING INHIBITORS OF NEURONAL APOPTOTIC PATHWAYS” (AEGERA THERAPEUTICS INC., priority 2006, published 2009).

Tests used:
JNK = assay: NRAGE- and p75NTR-induced JNK activation in PC12rtTA cells (c-Jun phosphorylation, caspase-3 cleavage, immunoblot); assay type: cell-based; details: for c-Jun phosphorylation: AdNRG infected, 30 hours (FIG. 6C)
Procedure: FIGS. 2C and 2D are photographs of Western blots which illustrate that compound 1 inhibits NRAGE- and p75NTR-induced JNK activation. C, D: Compound 1 inhibits NRAGE- and p75NTR-induced JNK activation. PC12^rtTA cells were infected with AdNRG at 5 MOI (C), with Adp75 at 50 MOI (D), or with AdLacZ at an equivalent MOI for each experiment, as indicated. At time of infection, the cells were treated with increasing concentrations of compound 1, or with vehicle alone, as indicated. […] Experiments in Panel A-D were performed three times with essentially identical results.
Activation of JNK activity is necessary for the induction of p75NTR- or NRAGE-initiated caspase cleavage and cell death (Bhakar et al., 2003; Salehi et al., 2002). Therefore, the effect of compound 1 on the activity of JNK was assessed by analyzing alterations in the phosphorylation level of the JNK target, c-Jun, and the cleavage status of caspase-3. […] Thus, the suppression of JNK signaling and caspase-3 cleavage mediated by compound 1 occurred with a dose-dependency similar to the anti-apoptotic activity of compound 1.
Cell culture, infection, transfection and immunoblotting. Sympathetic neurons were maintained and deprived of NGF as previously described (Bamji et al., 1998; Ma et al., 1992). PC12^rtTA cells were maintained and infected as previously described (Majdan et al., 1997; Salehi et al., 2002); for NRAGE, […] doxycycline was added to all plates at time of infection. Wildtype and HSF1 nullizygous immortalized mouse embryonic fibroblasts (MEFs) were maintained in DMEM containing 10% fetal calf serum, 1 μM β-mercaptoethanol, 1% non-essential amino acids, 1% L-glutamine, 1% antimycotic solution and 1% sodium pyruvate (all from GibcoBRL). Sympathetic neuron survival was assessed using the MTS assay according to the manufacturer's instructions (Promega). Analysis of PC12 cell death was determined using a lactate dehydrogenase (LDH) assay (Roche) as per the manufacturer's instructions. Transfections using plasmids or RNAi were performed using Lipofectamine 2000. Immunoblotting was performed as previously described (Majdan et al., 1997; Salehi et al., 2002).

HSP90 protein = assay: STD 1H NMR spectroscopy binding to HSP90; details: compound to protein ratio approximately 100:1, 20 mM sodium phosphate buffer pH 6.7
Procedure: (§1) FIG. 9 is a STD 1H NMR Spectrum of Compound 1 and 20 with HSP90 protein. STD NMR experiments were performed at 19° C. on a Varian INNOVA 500 MHz spectrometer equipped with a triple resonance HCN cold probe. A 1D saturation transfer difference pulse sequence with internal subtraction via phase cycling was employed. Residual HDO signal was removed using a W5 WATERGATE pulse sequence, with a […] interpulse delay. On resonance irradiation of the protein was performed at −0.5 ppm, with off-resonance irradiation at 34 ppm. The irradiation power was (g/2p)B1=93 Hz applied through a train of 50 ms eburp1 pulses with a 1 ms delay between the pulses. The total presaturation time was 5.1 s. The relaxation delay was set to 0.1 s. A 30 ms spin-lock pulse with a strength of (g/2p)B1=4600 Hz was used to eliminate background protein signals. The total number of scans was between 1536, with a sweep width of 16 ppm. Spectra were multiplied by a 1 Hz exponential line-broadening function prior to Fourier transform. Compounds 1 (85 uM) and 20 (85 uM) and HSP90 protein (0.85 uM) in 20 mM sodium phosphate buffer (pH 6.7) was used. A) STD 1H NMR spectrum, B) preset reference, and C) STD reference-no saturation/difference.
as §1, with “STD” for “FIG. 9 is a STD 1H NMR Spectrum of Compound 1 and 20 with HSP90 protein. STD”, “employed (Mayer and Meyer, JACS, 2001, 123, 6108-6117).” for “employed.”, “delay (Liu et. al, J. Magn. Res., 1998, 132, 125).” for “delay.”, “1536-2048,” for “1536,”, “transform.” for “transform. Compounds 1 (85 uM) and 20 (85 uM) and HSP90 protein (0.85 uM) in 20 mM sodium phosphate buffer (pH 6.7) was used. A) STD 1H NMR spectrum, B) preset reference, and C) STD reference-no saturation/difference.”
The compound to protein ratio was fixed at approximately 100:1 in 20 mM sodium phosphate buffer (pH 6.7). Compound 20 was used as a reference compound to compare binding affinities of various compounds to HSP90 by comparing the relative intensity of NOE effects in the spectra of compounds 1 and 20 (see FIG. 9), compounds 2 and 20, compounds 5 and 20, compounds 13 and 20, and compounds 15 and 20 (near equamolar quantities of each) in the presence of HSP90 protein. Using the NOE signals for the imidazole proton, and comparing peak heights, the relative kd of the compound pairs were compared (see Meyer and Peters, T. Angew. Chem. Int. Ed. 2003, 42, 864). The kds of the compound pairs ranged from 1:1 to 8:1. These differences in binding affinities correlated to the potency of each respective compound's ability to rescue SCG neurons from NGF withdrawal as previously reported.

HSP70 = HSP70 levels in SCG neurons (immunoblot); assay type: cell-based; details: 18 hours
Procedure: To address this, SCG neurons were treated with compound 1 for 18 hours then lysed and assessed for HSP70 levels by immunoblot. Uninfected PC12rtTA cells were treated in a similar manner. […] To test if the accumulation of HSP70 induced by compound 1 reflected increased steady state levels of its mRNA, RNA was isolated from PC12 cells treated with increasing concentrations of compound 1 for 18 hours and the cell lysates subjected to semi-quantitative rtPCR. […] HSP protein levels were also assessed in PC12rtTA cells infected with AdLacZ, Adp75, or AdNRG, and at the same time, exposed to compound 1.

Row | SMILES | c-Jun phosphorylation and caspase-3 cleavage (JNK; 10 μM, AdNRG infected cells) | decrease in c-Jun phosphorylation and caspase-3 cleavage (JNK; 40 μM, AdNRG infected cells) | c-Jun phosphorylation (JNK; 40 μM) | ability to block c-jun phosphorylation in cells transfected with HSP70 RNAi (JNK; HSP70 siRNA transfected PC12rtTA cells) | JNK inhibitory effects (JNK; extended (24 hour) incubation, 40 μM) | JNK inhibitory effects (JNK; short term (1 hr) incubation, 40 μM) | binding to HSP90 protein by STD 1H NMR (HSP90 protein) | cellular HSP70 levels (HSP70)
1 | NS(=O)(=O)c1nn2cc(-c3ccccc3)nc2s1 [Compound 1] | significant decrease | virtually complete | reducing | small but consistent attenuation | occurred | not short term | directly bind | large increase
2 | NS(=O)(=O)c1nn2cc(-c3ccc(N4CCOCC4)cc3)nc2s1 [Compound 2] | – | – | reducing | – | – | – | directly bind | –
